# Where a name gives a salt, the structure may show the parent alone.
# Key:
# [1] = molecular target: T1, Human recombinant full-length MNK1 protein (Homo sapiens, UniProt Q9BUB5); test: MNK1 inhibitory activity assay (ADP-Glo in vitro kinase assay); assay type: biochemical; conditions: 10 concentration points
# T1 construct: Human recombinant full-length MNK1 protein; purchased Thermo PR9138A
# Method: MNK1 Inhibitory Activity Assay: Evaluation of the effects of compounds of the invention on […] (MNK1) activity using in vitro kinase assays. The experimental methods are summarized as follows: The in vitro activity of MNK1 was determined by measuring the level of ADP produced in the kinase reaction using the ADP-Glo Kinase Assay Kit. The reaction buffer consisted of the following components: 50 mM HEPES, pH 7.5, 10 mM MgCl2, 1 mM EGTA, 0.01% Brij35. Human recombinant full-length MNK1 protein (Thermo, Cat. No. PR9138A) was diluted with a reaction buffer to a 3.13 ng/uL kinase solution. The substrate reaction solution consisted of a substrate diluted to 0.75 mg/ml in reaction buffer ([…], available from […] Domestic Company), 2250 uM ATP, the ADP-Glo reagent and kinase assay solution from Promega kit (Promega, V9102). […] If the compound IC50 value is very low, the initial concentration of the compound can be lowered. To a 384-well assay plate (Thermo, Cat. No. 264706) were added 1 uL of compound solution and 2 uL of MNK1 kinase solution. The mixture was mixed well and incubated for 30 minutes at room temperature; then 2 uL of substrate reaction solution was added, the reaction mixture was incubated for 120 minutes at room temperature. The reaction was terminated after an equal volume of 5uLADP-Glo solution was added, and the remaining ATP was completely consumed. After mixing for 60 minutes at room temperature, 10 ul of the kinase assay solution was added, and the mixture was uniformly mixed, and allowed to stand at room temperature for 40 minutes in the dark. The detection solution converts ADP into new ATP through coupled luciferase/luciferin, and ATP is converted into optical signal by Ultr-GloTM luciferase, which can be detected by Envision. The intensity of the light signal is proportional correlated with the amount of ADP produced in the kinase reaction, therefore, the activity of MNK1 kinase can be determined. In this experiment, the group without protein was used as a negative control (100% inhibition). The group with protein but without compounds was used as a positive control (0% inhibition).
# MV-4-11 cells = test: MV-4-11 cell proliferation inhibition assay (CellTiter-Glo luminescent cell viability); assay type: cell-based; conditions: Homo sapiens, MV4-11, 120 hours, CTG readout, 8 concentration points
# Method: MV-4-11 Cell Proliferation Inhibition Assay:
# The effect of the compounds of the present invention on the proliferation of MV-4-11 cells was evaluated using a luminescent cell viability assay.
# The experimental methods are summarized as follows:
# The cell proliferation status of MV-4-11 was detected using the CellTilter-Glo (CTG) assay kit: the luminescence signal generated in the assay is proportional to the number of viable cells in the culture medium by using a unique, stable luciferase to detect viable cell metabolism indicator ATP.
# CellTilter-Glo reagent (Promega, G7572) consists of CellTilter-Glo lyophilized powder and ellTilter-Glo buffer, which can be used to dissolve the lyophilized powder into the buffer.
# MV-4-11 cells (ATCC #CRL-9591, purchased from Nanjing Kezhen, item number CBP60522) were cultured in IMDM complete medium (Thermofisher, 12440053) containing 10% FBS (GBICO, 10099-141) and 100 units/ml streptomycin mixture (Thermofisher, 15140122). when the cells coverage rearched 80-90% in the culture container, dilute and plant with 0.25% trypsin (including EDTA) (Thermofisher, 25200056) in a white 384-well plate (Thermofisher, 164610), 400 cells per well (36 μl […] complete medium), then 384-well plates were incubated overnight (18-20 hours) in a 37° C., % CO2 incubator.
# Compounds were solubilized to 10 mM in 100% DMSO, then sequentially diluted in 4-fold with DMSO to a minimum concentration of […], and each concentration was diluted 50-fold with FBS-free IMDM medium. If the compound IC50 value is very low, the initial concentration of the compound can be lowered. 4 μl of the diluted IMDM compound was added to each well and mixed gently by centrifugation. The GI50 (50% Growth Inhibition) of the compounds was determined in this experiment, including the T0 group before the cell proliferation (including the T0 positive and T0 negative control groups), and the T5 group after 120 hours of cell proliferation (containing the T5 positive and T5 negative control groups).). T0 represents the number of cells before cell proliferation before compound addition, including positive control: the group with the addition of cells and 0.2% DMSO was used as the positive control. The group with medium alone was used as the negative control, T0 group before the addition of compound will be used for CTG test. […] Gently shake for 5 minutes to ensure sufficient cell lysis, leave for 10 minutes to stabilize the luminescence signal, and then read the luminescence signal with EnVision (Perkin Elmer).
# The inhibition of MV-4-11 cell proliferation of the compounds was calculated by the following formula: […]
# The IC50 value of the compound was calculated from the 8 concentration points by XLfit (ID Business Solutions Ltd., UK) software using the following formula: […]
# T1 sequence (Q9BUB5 whole entry): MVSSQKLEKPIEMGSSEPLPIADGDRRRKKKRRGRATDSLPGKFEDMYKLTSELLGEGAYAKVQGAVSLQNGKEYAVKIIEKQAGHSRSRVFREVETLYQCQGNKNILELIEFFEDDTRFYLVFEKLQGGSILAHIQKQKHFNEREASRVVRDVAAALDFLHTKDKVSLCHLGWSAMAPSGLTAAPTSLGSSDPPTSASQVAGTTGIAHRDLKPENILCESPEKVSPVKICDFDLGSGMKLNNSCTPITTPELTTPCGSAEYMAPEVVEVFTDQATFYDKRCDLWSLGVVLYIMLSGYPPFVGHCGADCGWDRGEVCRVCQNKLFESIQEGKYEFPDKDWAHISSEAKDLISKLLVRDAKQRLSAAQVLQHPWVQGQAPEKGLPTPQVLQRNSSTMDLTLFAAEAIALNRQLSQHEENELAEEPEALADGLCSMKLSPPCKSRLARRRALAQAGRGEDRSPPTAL
IC50 [1],IC50 (MV-4-11 cells),Compound
1.45 nM,301 nM,"COc1cc2[nH]ncc2cc1Nc1cc(NC(=O)C2CC2)ncn1 [Compound 4, 5-(6-Cyclopropionamidopyrimidin-4-ylamino)-6-methoxy-1H-indazole]"
2.7 nM,483 nM,"COc1c(Nc2cc(NC(=O)C3CC3)ncn2)ccc2c1CNC2=O [Compound 67, 5-((6-Cyclopropanamidopyrimidin-4-yl)amino)-4-methoxyisodihydroindole-1-one]"
8.2 nM,295 nM,"COc1c(Nc2cc(Nc3ccccn3)ncn2)ccc2c1CNC2=O [Compound 68, 5-((6-(Pyridin-2-ylamino)pyrimidin-4-yl)amino)-4-methoxyisodihydroindol-1-one]"
20.9 nM,,"COc1c(Nc2ncnc3[nH]ccc23)ccc2c1CNC2=O [Compound 79, 5-((7H-Pyrrolo[2,3-d]pyrimidin-4-yl)amino)-4-methoxyisoindolin-1-one]"
11.7 nM,,"COc1c(Nc2ncnc3[nH]cnc23)ccc2c1CNC2=O [Compound 80, 5-((9H-Purin-6-yl)amino)-4-methoxyisoindolin-1-one]"
103 nM,,"COc1c(Nc2ncnc3[nH]ncc23)ccc2c1CNC2=O [Compound 81, 5-((1H-Pyrazolo[3,4-d]pyrimidin-4-yl)amino)-4-methoxyisoindolin-1-one]"
154 nM,,"CNc1cncnc1Nc1ccc2c(c1OC)CNC2=O [Compound 82, 5-((5-Methylaminopyrimidin-4-yl)amino)-4-methoxyisodihydroindole-1-one formate]"
96.6 nM,,"COc1c(Nc2cc(Nc3ncccc3Cl)ncn2)ccc2c1CNC2=O [Compound 83, 5-((6-((3-Chloropyridin-2-yl)amino)pyrimidin-4-yl)amino)-4-methoxyisoindolin-1-one]"
5 nM,278 nM,"COc1c(Nc2cc(Nc3cnccn3)ncn2)ccc2c1CNC2=O [Compound 84, 5-((6-(Pyrazin-2-ylamino)pyrimidin-4-yl)amino)-4-methoxyisodihydroindol-1-one formate]"
13.9 nM,,"COc1c(Nc2cc(Nc3ccc(Cl)cn3)ncn2)ccc2c1CNC2=O [Compound 85, 5-((6-((5-Chloropyridin-2-yl)amino)pyrimidin-4-yl)amino)-4-methoxyisoindolin-1-one]"
18.5 nM,,"COc1c(Nc2cc(Nc3cccc(Cl)n3)ncn2)ccc2c1CNC2=O [Compound 86, 5-((6-((6-Chloropyridin-2-yl)amino)pyrimidin-4-yl)amino)-4-methoxyisoindolin-1-one]"
19.1 nM,,"COc1c(Nc2cc(Nc3cc(Cl)ccn3)ncn2)ccc2c1CNC2=O [Compound 87, 5-((6-((4-Chloropyridin-2-yl)amino)pyrimidin-4-yl)amino)-4-methoxyisoindolin-1-one]"
